Source: ChEMBL document CHEMBL1641593, “Benzothieno[3,2-b]quinolinium and 3-(phenylthio)quinolinium compounds: Synthesis and evaluation against opportunistic fungal pathogens” (Bioorg Med Chem, 2011)
Converted amounts (≈) assume the structure as drawn. The source made the active and inactive calls. The rule behind the calls is not given here.

Tests used:
[1] = system: Cryptococcus neoformans; assay: Antifungal activity against Cryptococcus neoformans ATCC 90113 by CLSI method; type: functional, organism-based
[2] = system: Aspergillus fumigatus; assay: Antifungal activity against Aspergillus fumigatus ATCC 90906 by CLSI method; type: functional, organism-based
[3] = system: Candida albicans; assay: Antifungal activity against Candida albicans ATCC 90028 by CLSI method; type: functional, organism-based; settings: Candida albicans, ATCC 90028
[4] = system: Vero; assay: Cytotoxicity against african green monkey Vero cells after 48 hrs by neutral red assay; type: cell-based; settings: Chlorocebus sabaeus
[5] = system: Pichia kudriavzevii; assay: Antifungal activity against Candida krusei ATCC 6258 by CLSI method; type: functional, organism-based
[6] = system: Cryptococcus neoformans; assay: Antifungal activity against Cryptococcus neoformans ATCC 90113 at 20 ug/ml by CLSI method; type: functional, organism-based
[7] = system: Candida albicans; assay: Antifungal activity against Candida albicans ATCC 90028 at 20 ug/ml by CLSI method; type: functional, organism-based
[8] = system: Aspergillus fumigatus; assay: Antifungal activity against Aspergillus fumigatus ATCC 90906 at 20 ug/ml by CLSI method; type: functional, organism-based

COc1ccc2c(c1)cc1sc3ccccc3c1[n+]2C.[I-]
MIC [1]: 8 µg/mL | IC50 [2]: 20 µg/mL | IC50 [3]: > 20 µg/mL | MIC [3]: > 20 µg/mL | IC50 [4]: > 23.8 µg/mL

[I-].c1ccc(Sc2cc3ccccc3[n+](CCCCCC3CCCCC3)c2)cc1
IC50 [1]: 0.5 µg/mL | MFC [1]: 2.5 µg/mL | MIC [1]: 1.3 µg/mL | IC50 [2]: 8.6 µg/mL | MFC [2]: > 20 µg/mL | MIC [2]: 10 µg/mL | IC50 [5]: 0.7 µg/mL | MFC [5]: 2.5 µg/mL | MIC [5]: 1.3 µg/mL | IC50 [3]: 2.7 µg/mL | MIC [3]: 5 µg/mL | IC50 [4]: 4.6 µg/mL

COc1cccc2c1cc1sc3ccccc3c1[n+]2C
Activity [6]: inactive

COc1ccc2sc3cc4ccccc4[n+](C)c3c2c1.[I-]
Activity [6]: inactive | IC50 [2]: 8 µg/mL | MIC [2]: 20 µg/mL | Activity [7]: inactive

C[n+]1c2cccc(O)c2cc2sc3ccccc3c21
Activity [6]: inactive | Activity [7]: inactive | Activity [8]: inactive

COc1cccc2c1sc1cc3ccccc3[n+](C)c12.[I-]
IC50 [1]: 10 µg/mL | MIC [1]: > 20 µg/mL | IC50 [2]: 3 µg/mL | MIC [2]: 5 µg/mL | IC50 [3]: 7 µg/mL | MIC [3]: > 20 µg/mL | IC50 [4]: > 10 µg/mL

COc1ccc2c(c1)sc1cc3ccccc3[n+](C)c12.[I-]
Activity [6]: inactive | IC50 [2]: 1 µg/mL | MIC [2]: 2.5 µg/mL | IC50 [3]: 6 µg/mL | MIC [3]: 20 µg/mL

C[n+]1c2ccccc2cc2sc3cc(Cl)ccc3c21.[I-]
Activity [6]: inactive | IC50 [2]: 9.5 µg/mL | MIC [2]: > 20 µg/mL | IC50 [3]: 2.5 µg/mL | MIC [3]: > 20 µg/mL | IC50 [4]: > 10 µg/mL

C[n+]1c2cc(Cl)ccc2cc2sc3ccccc3c21.O=S(=O)([O-])C(F)(F)F
IC50 [1]: 10 µg/mL | MIC [1]: > 20 µg/mL | Activity [7]: inactive | Activity [8]: inactive | IC50 [4]: > 10 µg/mL

C[C@@H]1[C@H](O)[C@@H](C)/C=C/C=C/C=C/C=C/C=C/C=C/C=C/[C@H](O[C@@H]2O[C@H](C)[C@@H](O)[C@H](N)[C@@H]2O)C[C@@H]2O[C@](O)(C[C@@H](O)C[C@@H](O)[C@H](O)CC[C@@H](O)C[C@@H](O)CC(=O)O[C@H]1C)C[C@H](O)[C@H]2C(=O)O [AMPHOTERICIN B]
IC50 [1]: 1.5 µg/mL (≈ 1.62 µM) | MIC [1]: 2.5 µg/mL (≈ 2.71 µM) | IC50 [2]: 1.5 µg/mL (≈ 1.62 µM) | MIC [2]: 2.5 µg/mL (≈ 2.71 µM) | MIC [3]: 0.6 µg/mL (≈ 0.649 µM)

C[n+]1c2ccccc2cc2sc3ccccc3c21.[I-]
MIC [1]: > 20 µg/mL | MIC [2]: > 20 µg/mL | MIC [3]: 7.8 µg/mL | IC50 [4]: > 23.8 µg/mL

C[n+]1c2ccccc2cc2[n-]c3ccccc3c21 [CRYPTOLEPINE]
IC50 [1]: 12.5 µg/mL (≈ 53.8 µM) | IC50 [4]: 3.2 µg/mL (≈ 13.8 µM)
